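The compound was tested at five concentrations on cells cultured in 96-well plates, with a 48-hour exposure period. GI50 is the concentration that inhibits growth by half.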 Activity calls are given as the source filed them. No stated cut-off is given here; in the data, active = GI50 up to about 1.1 µM and inactive = higher.
Experiments:
Experiment in all cases: NCI tumour cell line growth inhibition, 48 h
HCC 2998 = test system: HCC 2998
NCI-H226 = test system: NCI-H226
UO-31 = test system: UO-31
K562 = test system: K562
UACC-257 = test system: UACC-257
A549 = test system: A549
OVCAR-8 = test system: OVCAR-8
NCI-H460 = test system: NCI-H460
SK-MEL-5 = test system: SK-MEL-5
SW-620 = test system: SW-620
DMS-273 = test system: DMS-273
UACC-62 = test system: UACC-62
SK-MEL-2 = test system: SK-MEL-2
SF-268 = test system: SF-268
U-251 = test system: U-251
CCRF-CEM = test system: CCRF-CEM
RXF 393 = test system: RXF 393
LOX IMVI = test system: LOX IMVI
SR = test system: SR
SNB-75 = test system: SNB-75
DLD-1 = test system: DLD-1
SK-MEL-28 = test system: SK-MEL-28
TK-10 = test system: TK-10
MOLT-4 = test system: MOLT-4
OVCAR-4 = test system: OVCAR-4
HOP-18 = test system: HOP-18
NCI-H23 = test system: NCI-H23
NCI-H522 = test system: NCI-H522
RXF 631 = test system: RXF 631
IGROV-1 = test system: IGROV-1
XF498 = test system: XF498
SN12C = test system: SN12C
EKVX = test system: EKVX
SF-295 = test system: SF-295
COLO 205 = test system: COLO 205
SF-539 = test system: SF-539
HOP-62 = test system: HOP-62
SNB-19 = test system: SNB-19
HL-60 = test system: HL-60
HT-29 = test system: HT-29
KM12 = test system: KM12
HCT-116 = test system: HCT-116
ACHN = test system: ACHN
786-0 = test system: 786-0
Malme-3M = test system: Malme-3M
SNB-78 = test system: SNB-78
OVCAR-5 = test system: OVCAR-5
SK-OV-3 = test system: SK-OV-3
A498 = test system: A498
M14 = test system: M14
KM-20L2 = test system: KM-20L2
OVCAR-3 = test system: OVCAR-3
CAKI-1 = test system: CAKI-1
LXFL 529 = test system: LXFL 529

Measured: GI50

Cc1ccccc1NC(=O)Cc1nc2ccccc2s1
inactive: HCC 2998 34 µM | NCI-H226 18.9 µM | UO-31 11.5 µM | K562 18.3 µM | UACC-257 17.1 µM | A549 16.6 µM | OVCAR-8 17.7 µM | NCI-H460 19.4 µM | SK-MEL-5 51.2 µM | SW-620 19.8 µM | DMS-273 17.6 µM | UACC-62 19.4 µM | SK-MEL-2 16 µM | SF-268 17 µM | U-251 11.8 µM | CCRF-CEM 9.51 µM | RXF 393 18.9 µM | LOX IMVI 16.7 µM | SR 13.1 µM | SNB-75 61 µM | DLD-1 7.08 µM | SK-MEL-28 17.7 µM | TK-10 23.8 µM | MOLT-4 17.9 µM | OVCAR-4 17.3 µM | HOP-18 1.72 µM | NCI-H23 14.7 µM | NCI-H522 15.3 µM | RXF 631 16 µM | IGROV-1 > 10 µM | XF498 14.5 µM | SN12C 16.6 µM | EKVX 19.7 µM | SF-295 15.8 µM | COLO 205 30.7 µM | SF-539 18.9 µM | HOP-62 > 10 µM | SNB-19 29.7 µM | HL-60 9.44 µM | HT-29 19.6 µM | KM12 16.7 µM | HCT-116 16.5 µM | ACHN 15.4 µM | 786-0 17.7 µM | Malme-3M 15.8 µM | SNB-78 18.6 µM | OVCAR-5 21.9 µM | SK-OV-3 24.4 µM | A498 19.2 µM | M14 12.6 µM | KM-20L2 18.4 µM | OVCAR-3 18 µM | CAKI-1 17.7 µM | LXFL 529 16.4 µM
